From patent US7998739B2, “Methods of activating NKT cells” (The Scipps Research Institute, priority 2004, dated 2011)
“Also recorded” adds a separate entry of the source.

Legend:
[1] = target: T1, mCD1d-GT (mouse CD1d preloaded with GT1b) (Mus musculus, UniProt P11609); assay: CD1d lipid loading in the presence of saposin B, visualized by isoelectrofocusing; assay type: binding; conditions: cell-free; for replacement of GT1b preloaded onto CD1d: 2 μM mCD1d-GT, 25 μM isogloboside, with or without 5 μM saposin B
T1 construct: made in house; host or cells: fly expression system
T1 sequence (P11609 19-297 limits assumed): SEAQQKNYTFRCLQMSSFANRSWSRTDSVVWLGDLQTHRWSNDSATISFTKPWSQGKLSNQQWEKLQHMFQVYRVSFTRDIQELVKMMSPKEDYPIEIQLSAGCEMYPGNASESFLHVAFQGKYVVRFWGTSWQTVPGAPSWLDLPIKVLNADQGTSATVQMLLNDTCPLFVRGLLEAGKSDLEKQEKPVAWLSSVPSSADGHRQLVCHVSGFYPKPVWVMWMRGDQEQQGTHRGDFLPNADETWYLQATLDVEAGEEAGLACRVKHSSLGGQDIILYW
T1 sequence (P01887 21-119 partner): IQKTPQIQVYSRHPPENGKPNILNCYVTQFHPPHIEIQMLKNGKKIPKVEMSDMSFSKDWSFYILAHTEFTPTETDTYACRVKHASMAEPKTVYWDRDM
Source text: (§1) FIG. 4C left panel depicts in vitro loading of iGb3 and iGb4 onto recombinant CD1d in the presence of saposin B, visualized by isoelectrofocusing.
(§2) CD1d lipid loading and cell-free presentation assay. Purified complexes of CD1 d-GT were made and exchange of lipid in these complexes was quantified from isoelectric focusing gels as previously described by Cantu C III, et al., J. Immunol. 170, 4673-82 (2003), incorporated herein by reference in its entirety. Saposin-mediated loading of lipid was performed with recombinant human saposin B as described in Zhou D et al., Science 303, 523-27 (2004), incorporated herein by reference in its entirety, and with mouse saposin B. Recombinant mouse saposin B was expressed in a fly expression system and purified in the same manner used for production of mouse CD1d, described in Benlagha K, et al., J. Exp. Med 191, 1895-1903 (2000), incorporated herein by reference in its entirety. […] Stimulation of the NKT cell hybridoma DN32.D3 was measured. Briefly, mouse CD1d protein was coated for 24 h at 1 μg/well in phosphate-buffered saline (PBS) on 96-well plates. Plates were washed three times with PBS and then incubated for another 24 h with a constant lipid concentration of 6 μg/ml and various concentrations of mouse saposin B. Plates were washed three times with PBS; then 2×10^4 hybridoma cells were added. Supernatants were collected after 24 h to measure IL-2 release.

human Vα24 NKT line = assay: Cytokine secretion by human Vα24 NKT line stimulated with glycolipid-pulsed antigen presenting cells (ELISA); assay type: cell-based; conditions: for stimulation of human Vα24 NKT cells: in the presence of antigen-presenting cells; for Th1 (IFNγ) cytokine secretion by polyclonal human NKT line / Th2 (IL4) cytokine secretion by polyclonal human NKT line: 100 ng/ml in FIG. 3C right panel
Method: FIG. 3C left panel depicts IFN-γ production by a human Vα24 NKT line stimulated with a range of concentrations of iGb3 and αGalCer in the presence of irradiated PBMC as CD1d-expressing antigen presenting cells. The right panel depicts IFN-γ vs. IL-4 production by the human Vα24 NKT line in response to irradiated PBMC and 100 ng/ml of iGb3 of synthetic, purified and enzymatic origin, vs. 100 ng/ml of αGalCer, Gb3 or LacCer, as indicated.
(§3) CD1d-restricted T cell responses. Antigen presenting cells were mouse spleen cells cultured at 5×10^5 cells/well, mouse bone marrow-derived dendritic cells generated in the presence of GMC-SF and IL4, activated overnight with 10 ng/ml TNF-α and cultured at 5×10^4 cells/well, and human PBMC or GM-CSF/IL-4 cultured PBMC-derived dendritic cells cultured at 2.5×10^5 cells/well. NKT hybridomas were cultured at 5×10^4 cells/well and the human NKT line was cultured at 2.5×10^5 cells/well. Cytokines released in the culture supernatant were measured by standard ELISA for human IL-4 and IFN-γ (Pharmingen-Becton Dickinson, CA), and the indicator CTLL IL2 bioassay for mouse hybridomas. NKT hybridomas DN32.D3 (Vα14^+), TCBII (Vα14^−), TBA7 (Vα14^−) and the rat basophil leukemia RBL.CD1d transfectant line were used as described in Park, S-H et al., J. Immunol. 160 3128-34 (1998), incorporated herein by reference in its entirety. The human polyclonal Vα24Vβ11 NKT line was derived by repeated αGalCer stimulation of healthy human PBL in vitro and maintained by PHA and IL2 restimulation, and two different subclones, CD4 and DN, were used in experiments. Griffonia Simplicifolia isolectin B4 (IB4) was from Vector Laboratories, and anti-human CD1d mAb 51 was obtained from Dr. S. Porcelli. For stimulation with synthetic glycolipids, APCs were pulsed for 6 hours with various concentrations of lipids (from stock solution in DMSO), washed and incubated with NKT cell hybridoma or cell lines for 18-24 hours.

non-Vα14 hybridomas = assay: Stimulation of non-Vα14 hybridomas by glycolipid presented by bone marrow-derived dendritic cells; assay type: cell-based, mouse; conditions: not shown
Method: as §3, with “For stimulation with synthetic glycolipids, APCs were pulsed for 6 hours with various concentrations of lipids (from stock solution in DMSO), washed and incubated with NKT cell hybridoma or cell lines for 18-24 hours.” left out

[2] = system: NKT cell hybridoma DN32.D3; assay: Cell-free presentation to DN32.D3 by plate-bound CD1d in the presence of saposin B (IL-2 release); assay type: cell-based, mouse; conditions: lipid 6 μg/ml
Source text: as §1
as §2, with “Supernatants were collected after 24 h to measure IL-2 release.” left out

[3] = system: mouse Vα14 hybridoma DN32.D3; assay: Stimulation of mouse Vα14 NKT hybridomas by glycolipids with bone marrow-derived dendritic cells (CTLL IL2 bioassay); assay type: cell-based; conditions: for presentation to DN32.D3 by Hexb−/− cells: bone marrow-derived DC from Hexb−/− mice; for stimulation of mouse Vα14 NKT cells: in the presence of antigen-presenting cells
Method: FIG. 4A depicts stimulation of mouse Vα14 hybridoma DN32.D3 by iGb3 and iGb4 with bone marrow-derived DC as CD1d-expressing antigen-presenting cells from Hexb^−/−, Hexb^−/− and CD1-TD mice, as indicated.
as §3

human Vα24 NKT cells = assay: Expansion of hVα24 NKT cells in 4-day cultures of fresh PBMC (anti-Vα24 / CD1d-αGalCer tetramer staining); assay type: cell-based; conditions: 100 ng/ml
Method: FIG. 3B depicts frequency of hVα24 NKT PBL, doubly-stained by anti-Vα24 and CD1d-αGalCer tetramers, in PBMC cultured for 4 days in the presence of 100 ng/ml αGalCer, iGb3, or medium alone, as indicated.
Lymphocyte preparation and flow cytometry. Lymphocyte preparations, CD1d-αGalCer tetramers, and flow cytometry staining were done according to standard protocols, e.g., those described in Zhou D et al., Science 303, 523-27 (2004), incorporated herein by reference in its entirety.
Chemically synthesized globotrihexosylceramide (Gb3, Gal α1,4 Gal β1,4 Glc β1,1 Cer) and isoglobotrihexosylceramide (iGb3, Gal α1,3 Gal β1,4 Glc β1,1 Cer) were tested for their ability to stimulate NKT cells in the presence of antigen-presenting cells.

hVα24 NKT line = assay: Inhibition of the response of the hVα24 NKT line to PBMC-derived dendritic cells (GMCSF release, ELISA); assay type: cell-based, human; conditions: PBMC-derived dendritic cells plus exogenous ligand
Method: as §3, with “Cytokines released in the culture supernatant were measured by standard ELISA for human IL-4 and IFN-γ (Pharmingen-Becton Dickinson, CA), and the indicator CTLL IL2 bioassay for mouse hybridomas.” left out

Vα14 DN32.D3 hybridoma = Vα14 DN32.D3 hybridoma stimulation by spleen cells pulsed with αGalCer variants; assay type: cell-based, mouse
Source text: FIG. 2B depicts Vα14 DN32.D3 hybridoma stimulation responses to spleen cells from Hexb^−/− (o) and Hexb^−/− littermates (●), αGalAl-(▪) and CD1-TD knock-in (▴) mice. Spleen cells were pulsed with αGalCer variants as indicated prior to hybridoma stimulation. The data are representative of 2 separate experiments.
as §3, with “hours. […]” for “hours.”

[4] = presented by irradiated PBMC, listed as Synthetic iGb3
[5] = presented by irradiated PBMC, listed as iGb3 produced in vitro by action of iGb3 synthase
[6] = presented by irradiated PBMC, listed as natural iGb3 purified from cat intestine

Molecule | loading onto mCD1d-GT by mouse versus human saposin B [1] | replacement of GT1b preloaded onto CD1d [1] | stimulation of human Vα24 NKT cells (human Vα24 NKT line) | direct stimulation of Vα14 NKT cells by CD1d/lipid complexes [2] | presentation to DN32.D3 by Hexb−/− cells [3] | stimulation of mouse Vα14 NKT cells [3] | stimulation and expansion of human NKT cells (frequency of hVα24 NKT PBL) (human Vα24 NKT cells) | presentation to DN32.D3 by α-Galactosidase A (αGalA)−/− cells (Vα14 DN32.D3 hybridoma) | also measured
CCCCCCCCCCCCC/C=C/[C@@H](O)[C@H](CO[C@@H]1O[C@H](CO)[C@@H](O[C@@H]2O[C@H](CO)[C@H](O)[C@H](O[C@H]3O[C@H](CO)[C@H](O)[C@H](O)[C@H]3O)[C@H]2O)[C@H](O)[C@H]1O)NC(=O)CCCCCCCCCCCCCCCCCCCCCCCCC [iGb3, isoglobotrihexosylceramide] | equally loaded | partial replacement; also recorded: required saposin B | potent stimulator | directly stimulated | presented | potent stimulator | selectively stimulated and expanded |  | Th1 (IFNγ) cytokine secretion by polyclonal human NKT line (human Vα24 NKT line; [4]): stimulated potent; Th2 (IL4) cytokine secretion by polyclonal human NKT line (human Vα24 NKT line; [4]): stimulated potent; Th1 (IFNγ) cytokine secretion by polyclonal human NKT line (human Vα24 NKT line; [5]): levels comparable to αGalCer; Th2 (IL4) cytokine secretion by polyclonal human NKT line (human Vα24 NKT line; [5]): levels comparable to αGalCer; Th1 (IFNγ) cytokine secretion by polyclonal human NKT line (human Vα24 NKT line; [6]): levels comparable to αGalCer; Th2 (IL4) cytokine secretion by polyclonal human NKT line (human Vα24 NKT line; [6]): levels comparable to αGalCer; cloned CD4 and DN human NKT lines showing cytokine secretion (human Vα24 NKT line; presented by irradiated PBMC, lines responding/tested, not shown): 2/2; stimulation of non-Vα14 hybridomas (non-Vα14 hybridomas): failed to stimulate 3/3; other individual mVα14 hybridomas stimulated ([3]; bone marrow-derived dendritic cells, hybridomas responding/tested, not shown): 5/5; stimulation of mVα14 NKT cell hybridoma DN32.D3 ([3]; presented by CD1d-expressing bone marrow-derived dendritic cells): stimulated
CCCCCCCCCCCCC/C=C/[C@@H](O)[C@H](COC1OC(CO)C(OC2OC(CO)C(O)C(OC3OC(CO)C(O)C(OC4OC(CO)C(O)C(O)C4NC(C)=O)C3O)C2O)C(O)C1O)NC(=O)CCCCCCCCCCCCCCCCCCCCCCCCC (stereo partly shown) [iGb4] | equally loaded | partial replacement; also recorded: required saposin B | stimulatory | very weak response | failed to present | stimulatory |  |  | 
CCCCCCCCCCCCCCCCCCCCCCCCCC(=O)N[C@@H](CO[C@H]1O[C@H](CO)[C@H](O)[C@H](O)[C@H]1O)[C@H](O)[C@H](O)CCCCCCCCCCCCCC [αGalCer, α-galactosylceramide, reference compound] |  |  |  |  |  |  | selectively stimulated and expanded |  | GMCSF release in the supernatant, control without lectin (hVα24 NKT line): 939 pg/mL
Gal α1,2 Gal αCer |  |  |  |  |  |  |  | selective defect | 
Gal α1,4 Gal αCer |  |  |  |  |  |  |  | selective defect | 
GalNAc β1,4 Gal αCer |  |  |  |  |  |  |  |  | presentation to DN32.D3 by Hexb−/− cells (Vα14 DN32.D3 hybridoma): selective defect
